Reference: PubChem BioAssay (NCI)
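Following 48 hours of exposure in 96-well plates, responses at five concentrations were used to interpolate endpoints linearly. Definition used: TGI = concentration required for complete inhibition of growth.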

Legend:
Experiment in all cases: growth of human tumour cells (NCI), 48 h
EKVX NSCLC = test system: EKVX NSCLC
OVCAR-4 ovarian = test system: OVCAR-4 ovarian
NCI-H226 lung = test system: NCI-H226 lung
MDA-MB-435 = test system: MDA-MB-435
HCT-116 colon = test system: HCT-116 colon
MDA-MB-231 breast = test system: MDA-MB-231 breast
OVCAR-8 ovarian = test system: OVCAR-8 ovarian
SF-539 CNS = test system: SF-539 CNS
KM12 colon = test system: KM12 colon
MCF7 breast = test system: MCF7 breast
NCI-H23 lung = test system: NCI-H23 lung
SNB-19 CNS = test system: SNB-19 CNS
MDA-N = test system: MDA-N
SK-MEL-5 melanoma = test system: SK-MEL-5 melanoma
UACC-62 melanoma = test system: UACC-62 melanoma
A498 renal = test system: A498 renal
NCI/ADR-RES ovarian = test system: NCI/ADR-RES ovarian
U251 CNS = test system: U251 CNS
HOP-92 NSCLC = test system: HOP-92 NSCLC

Structure (SMILES)	TGI (EKVX NSCLC)	TGI (OVCAR-4 ovarian)	TGI (NCI-H226 lung)	TGI (MDA-MB-435)	TGI (HCT-116 colon)	TGI (MDA-MB-231 breast)	TGI (OVCAR-8 ovarian)	TGI (SF-539 CNS)	TGI (KM12 colon)	TGI (MCF7 breast)	TGI (NCI-H23 lung)	TGI (SNB-19 CNS)	TGI (MDA-N)	TGI (SK-MEL-5 melanoma)	TGI (UACC-62 melanoma)	TGI (A498 renal)	TGI (NCI/ADR-RES ovarian)	TGI (U251 CNS)	TGI (HOP-92 NSCLC)
O=C1NC(=O)[C@@H](OCC2CCCCC2)[C@@H]2OCC3OC(C(O)C3O)C12 (stereo partly drawn)	> 100 µM	> 100 µM	> 100 µM	> 100 µM	> 100 µM	> 100 µM	> 100 µM	> 100 µM	> 100 µM	> 100 µM	> 100 µM	> 100 µM	> 100 µM	> 100 µM	> 100 µM	> 100 µM	> 100 µM	–	–
C[n+]1c2ccccc2c(C(=O)NC(CCCN=C(N)N)C(=O)O)c2ccccc21 (stereo not drawn)	> 100 µM	> 100 µM	–	> 100 µM	> 100 µM	> 100 µM	> 100 µM	> 100 µM	> 100 µM	> 100 µM	> 100 µM	> 100 µM	> 100 µM	> 100 µM	> 100 µM	> 100 µM	> 100 µM	> 100 µM	–
COc1cccc(CCn2c(N)c(C(=O)O)c3ccc([N+](=O)[O-])cc3c2=O)c1	> 100 µM	> 100 µM	> 100 µM	> 100 µM	> 100 µM	72.8 µM	> 100 µM	–	–	57.7 µM	64.7 µM	> 100 µM	> 100 µM	> 100 µM	> 100 µM	> 100 µM	89.7 µM	> 100 µM	–
Brc1cccc(Nc2ncnc3sc4c(c23)CCC(Nc2cccc(Br)c2)C4)c1 (stereo not drawn)	> 100 µM	> 100 µM	–	> 100 µM	> 100 µM	> 100 µM	> 100 µM	–	> 100 µM	> 100 µM	> 100 µM	> 100 µM	> 100 µM	> 100 µM	> 100 µM	–	> 100 µM	> 100 µM	> 100 µM
O=C1N(CN2CCOCC2)CN(CN2CCOCC2)C(=O)N1Cc1ccc(-c2ccc(CN3C(=O)N(CN4CCOCC4)CN(CN4CCOCC4)C3=O)cc2)cc1	61.5 µM	39.3 µM	> 77.3 µM	13.6 µM	29.7 µM	> 73.9 µM	82.9 µM	> 74.3 µM	77.3 µM	> 100 µM	47.5 µM	31.2 µM	–	> 38.9 µM	37.7 µM	44.1 µM	80.8 µM	> 70.8 µM	36.4 µM
CN(C(=O)[C@@H](NC(=O)OC(C)(C)C)c1ccccc1)[C@H]1CCCC[C@@H]1N1CCCC1	> 100 µM	> 100 µM	> 100 µM	> 100 µM	> 100 µM	> 100 µM	> 100 µM	> 100 µM	> 100 µM	> 100 µM	> 100 µM	> 100 µM	–	> 100 µM	> 100 µM	> 100 µM	> 100 µM	> 100 µM	–
COC(=O)/C=C\[C@@H]1[C@H](C)N1S(=O)(=O)c1ccc(C)cc1 (stereo partly drawn)	–	> 100 µM	> 100 µM	> 100 µM	> 100 µM	> 100 µM	> 100 µM	> 100 µM	–	> 100 µM	> 100 µM	> 100 µM	> 100 µM	> 100 µM	> 100 µM	> 100 µM	> 100 µM	> 100 µM	–
CC(=O)/C=C(/C=N/O)c1ccccc1	> 100 µM	> 100 µM	> 100 µM	> 100 µM	> 100 µM	> 100 µM	> 100 µM	> 100 µM	> 100 µM	> 100 µM	> 100 µM	> 100 µM	> 100 µM	> 100 µM	> 100 µM	–	> 100 µM	> 100 µM	–
CCc1cccc(CC)c1Nc1nc2c(s1)C(=O)c1ccccc1C2=O	36.1 µM	–	–	31.9 µM	31.4 µM	41.4 µM	–	49.1 µM	41 µM	52 µM	32.8 µM	31.9 µM	32.3 µM	47.9 µM	32.3 µM	–	–	29.8 µM	44.7 µM
CCN(CC)CCSc1n[nH]c(-c2c[nH]c3nc(C)ccc3c2=O)n1	> 100 µM	> 100 µM	> 100 µM	> 100 µM	> 100 µM	> 100 µM	> 100 µM	–	> 100 µM	> 100 µM	> 100 µM	> 100 µM	> 100 µM	> 100 µM	> 100 µM	> 100 µM	> 100 µM	> 100 µM	–
CC(NC1=NCCO1)c1cccs1 (stereo not drawn)	> 100 µM	> 100 µM	> 100 µM	44.4 µM	38.6 µM	> 100 µM	> 100 µM	–	31.7 µM	55.9 µM	> 100 µM	55.9 µM	–	75.1 µM	37.3 µM	> 100 µM	> 100 µM	39.6 µM	47 µM
CC(C)(O)/C=C\P(C)(=O)c1ccccc1 (stereo not drawn)	> 100 µM	> 100 µM	> 100 µM	> 100 µM	> 100 µM	–	> 100 µM	> 100 µM	> 100 µM	> 100 µM	> 100 µM	> 100 µM	> 100 µM	> 100 µM	> 100 µM	–	> 100 µM	> 100 µM	> 100 µM
COc1cc(/C=C2\N=C(c3ccccc3)N(c3nc4cc(C)c(C)cc4s3)C2=O)cc(OC)c1OC	70.7 µM	> 100 µM	–	54.9 µM	50.4 µM	> 100 µM	47.6 µM	51.4 µM	71.2 µM	43 µM	–	> 100 µM	38.9 µM	> 100 µM	> 100 µM	–	> 100 µM	66.1 µM	64.8 µM
COc1cc(/C=C/C=C2\CCC/C(=C\C=C\c3ccc(O)c(OC)c3)C2=O)ccc1O	64.7 µM	> 100 µM	–	> 100 µM	49 µM	> 100 µM	72.3 µM	45.9 µM	97.4 µM	36 µM	> 100 µM	> 100 µM	> 100 µM	27.2 µM	31.6 µM	–	48.8 µM	> 100 µM	44.9 µM
COc1cc(C2=C(C)[C@@H]3CN(CC=C3c3ccc(Cl)cc3)C2)c(S(=O)(=O)O)cc1OC	> 100 µM	> 100 µM	> 100 µM	> 100 µM	> 100 µM	> 100 µM	> 100 µM	–	> 100 µM	–	> 100 µM	> 100 µM	> 100 µM	> 100 µM	> 100 µM	–	> 100 µM	> 100 µM	> 100 µM
CC(C)c1cccc(C(C)C)c1NC(=O)C(=O)CC(=O)CC(c1ccccc1)c1c(O)c2ccccc2oc1=O (stereo not drawn)	> 100 µM	> 100 µM	–	–	> 100 µM	–	> 100 µM	> 100 µM	> 100 µM	–	> 100 µM	> 100 µM	–	> 100 µM	> 100 µM	> 100 µM	–	–	> 100 µM
OC1CSCCCSCCSCCCSC1	> 100 µM	> 100 µM	> 100 µM	> 100 µM	> 100 µM	> 100 µM	> 100 µM	> 100 µM	–	> 100 µM	> 100 µM	> 100 µM	> 100 µM	> 100 µM	> 100 µM	> 100 µM	–	> 100 µM	> 100 µM
O=S(Nc1ccccc1)c1ccc(-c2ccccc2)cc1 (stereo not drawn)	> 100 µM	> 100 µM	> 100 µM	> 100 µM	> 100 µM	> 100 µM	> 100 µM	> 100 µM	> 100 µM	> 100 µM	> 100 µM	> 100 µM	> 100 µM	> 100 µM	> 100 µM	–	> 100 µM	> 100 µM	–
Cc1ccc(/C=C/C(=O)C(C)C)cc1	> 100 µM	> 100 µM	–	–	–	–	> 100 µM	–	> 100 µM	–	> 100 µM	> 100 µM	–	> 100 µM	> 100 µM	> 100 µM	–	> 100 µM	> 100 µM
Cc1ccc(S(=O)(=O)NC(=O)NC(C(=O)O)C(C)O)cc1 (stereo not drawn)	–	> 100 µM	–	–	> 100 µM	> 100 µM	> 100 µM	> 100 µM	> 100 µM	> 100 µM	> 100 µM	> 100 µM	> 100 µM	> 100 µM	> 100 µM	–	> 100 µM	> 100 µM	> 100 µM
CN(C)CCn1c(=O)oc2cc(C(=O)CN3CCOCC3)ccc21	> 100 µM	–	> 100 µM	> 100 µM	> 100 µM	> 100 µM	> 100 µM	> 100 µM	> 100 µM	> 100 µM	> 100 µM	> 100 µM	> 100 µM	> 100 µM	> 100 µM	–	> 100 µM	> 100 µM	–
COC(=O)c1ccc(/C=C2\Cc3ccccc3C2=O)cc1	> 100 µM	> 100 µM	–	> 100 µM	> 100 µM	> 100 µM	> 100 µM	> 100 µM	> 100 µM	> 100 µM	> 100 µM	> 100 µM	> 100 µM	> 100 µM	> 100 µM	–	> 100 µM	> 100 µM	–
O=C1CCc2nc3ncccc3cc2C1	> 100 µM	> 100 µM	> 100 µM	82.3 µM	> 100 µM	> 100 µM	–	–	–	–	> 100 µM	> 100 µM	> 100 µM	> 100 µM	–	> 100 µM	> 100 µM	–	> 100 µM
CCOc1ncn(-c2ccc(NC(=S)Nc3cnccn3)cc2)n1	> 10 µM	> 10 µM	> 10 µM	> 10 µM	–	> 10 µM	> 10 µM	> 10 µM	> 10 µM	> 10 µM	> 10 µM	> 10 µM	> 10 µM	–	> 10 µM	–	> 10 µM	> 10 µM	> 10 µM
N#C/C(=C\c1ccc(F)cc1)c1nc2ccccc2c(=O)[nH]1	> 100 µM	> 100 µM	> 100 µM	> 100 µM	> 100 µM	> 100 µM	> 100 µM	> 100 µM	> 100 µM	> 100 µM	–	> 100 µM	> 100 µM	–	> 100 µM	–	> 100 µM	> 100 µM	> 100 µM
CC(C)(C)OC(=O)NNC(=O)C1Cc2ccccc2OC1=O (stereo not drawn)	> 100 µM	–	> 100 µM	> 100 µM	> 100 µM	–	> 100 µM	> 100 µM	> 100 µM	–	> 100 µM	> 100 µM	> 100 µM	> 100 µM	> 100 µM	–	> 100 µM	> 100 µM	–
COc1cc2c(cc1OC)C(=O)Cc1ccc3c(c1CNCC2)OCO3	> 100 µM	> 100 µM	–	–	> 100 µM	–	> 100 µM	> 100 µM	> 100 µM	–	> 100 µM	> 100 µM	–	> 100 µM	> 100 µM	> 100 µM	–	> 100 µM	–
CC(C)[C@H]1CO[C@@H]2O[C@H](C)CC(=O)N21	> 100 µM	> 100 µM	> 100 µM	–	> 100 µM	–	> 100 µM	> 100 µM	> 100 µM	–	> 100 µM	> 100 µM	–	> 100 µM	> 100 µM	–	–	> 100 µM	> 100 µM
COCOc1cc(OC)c(Br)cc1C/C(=N/O)C(=O)OC	> 100 µM	> 100 µM	> 100 µM	> 100 µM	> 100 µM	> 100 µM	> 100 µM	> 100 µM	> 100 µM	> 100 µM	> 100 µM	> 100 µM	> 100 µM	> 100 µM	> 100 µM	–	> 100 µM	> 100 µM	–
